Test [1] addresses T1, IDH2/R140Q (Homo sapiens, UniProt P48735, R140Q).
T1 sequence (P48735 40-452 R140Q): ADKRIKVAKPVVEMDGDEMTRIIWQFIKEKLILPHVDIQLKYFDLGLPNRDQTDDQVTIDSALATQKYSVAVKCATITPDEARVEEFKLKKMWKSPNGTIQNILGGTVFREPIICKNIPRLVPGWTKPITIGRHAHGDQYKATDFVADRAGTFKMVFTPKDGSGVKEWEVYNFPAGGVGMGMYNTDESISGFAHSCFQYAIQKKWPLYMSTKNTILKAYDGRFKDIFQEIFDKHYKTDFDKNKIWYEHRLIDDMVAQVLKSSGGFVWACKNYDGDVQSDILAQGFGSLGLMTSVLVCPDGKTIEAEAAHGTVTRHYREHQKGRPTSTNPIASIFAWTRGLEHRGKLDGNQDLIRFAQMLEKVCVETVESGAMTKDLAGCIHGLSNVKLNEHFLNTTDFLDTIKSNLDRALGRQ
Kind of test: Inhibition of mutant IDH2 activity at the cell level (extracellular 2-HG, U87MG overexpressing IDH2/R140Q). It is filed as cell-based. The note with it: U87MG overexpressing IDH2/R140Q; 2-HG in medium after 24 hours of culturing with compound; read-out: IC50. Here is the method:
2-hydroxyglutarate dehydrogenase (2HGDH) can reduce NAD+ to NADH in the presence of 2-HG. The latter can be quantitatively detected by diaphorase and its substrate Resazurin.
The glioma cells U87MG overexpressing IDH2/R140Q mutation were cultured in 1% sodium pyruvate high-sugar MEM, 10% FBS, and placed in a CO2 incubator (37° C., 5% CO2, 95% air) for cultivation.
The cells were digested with trypsin and seeded in a 96-well plate at a density of 1×10^4 with a medium of 200 μL and cultured in a 37° C. incubator overnight. The next day, the test compound was added to a final concentration of 0.1% for DMSO. […] The protein and other components in the medium that may interfere with the results were filtered, and the follow-up method was used to detect the content of 2-HG. 50 uL CellTiter-Glo (purchased from Promega) was added to the 96-well plate with the remaining 100 μL of medium to detect cell survival;
Extracellular 2-HG detecting system:
(1) 50 μL reaction system: reaction buffer (50 mM Tris pH7.5, 100 mM NaCl, 20 mM MgCl2, 0.05% BSA), in which the final concentration of NAD+ was 40 μM, the final concentration of 2HGDH was 20 nM, and the test sample was added to 5 μL of medium; the reaction solution was mixed and centrifuged, and the reaction was carried out for 1 hour at 25° C. in the dark;
Preparation of 2-HG standard curve: a 2-HG stock solution was diluted to 20 μM with reaction buffer, and a 2-fold gradient diluting was performed for a total of 6 points. Afterwards, the above-mentioned 2-HG was measured according to the extracellular 2-HG detecting system, and a standard curve was calculated and drawn.
Calculation of extracellular 2-HG content:
The fluorescence value obtained in the extracellular 2-HG detecting system was calculated using the 2-HG standard curve to calculate the content of 2-HG in the medium, and DMSO was used as a negative control to calculate the compound's inhibition against IDH2/R140Q mutation producing 2-HG activity.

The target of test [2] is T1, IDH2/R140Q. Kind of test: Determination of the inhibitory activity of the compounds on IDH2/R140Q (NADPH reduction, resazurin/lipoamide dehydrogenase detection). It counts as biochemical. Also noted: purchased Abcam ab198153. The note with it: IDH2/R140Q inhibitory activity; pre-incubated at 25° C. for 16 hours; read-out: IC50. Here is the method: In this example, the inhibitory activity of a compound on IDH2/R140Q was determined by measuring the reduction of the cofactor NADPH. The compound was incubated with IDH2/R140Q and NADPH, and then the reaction was initiated by adding α-KG. After a certain time of reaction under linear conditions, lipoamide dehydrogenase and the corresponding substrate resazurin were added for detection. Lipoamide dehydrogenase terminated the IDH2/R140Q reaction bγ subtracting the available cofactor NADPH. It oxidized NADPH to NADP, and reduced resazurin to highly fluorescent resorufin. The production of resorufin was detected to quantify the amount of cofactor NADPH remaining after a specific reaction time.
Then 25 μL of a stop mixed solution (lipoamide dehydrogenase 36 μg/mL, resazurin 30 μM) prepared with the above reaction buffer was added to convert resazurin to resorufin to measure the remaining NADPH. After 10 minutes of incubation at 25° C., the fluorescence value was measured by Tecan […] […] The enzyme activity was measured at 10 concentrations for each compound, and multiple background holes without enzyme and full enzyme activity holes without compound were set up in the reaction. The concentration of dimethyl sulfoxide in the system was less than or equal to 2%. […] The multi-well plate in this example was purchased from Thermo Fisher Scientific, NADPH, α-KG, lipoamide dehydrogenase, and resazurin were purchased from Shenggong Bioengineering Co., Ltd., and IDH2/R140Q was purchased from Abcam (ab198153).
Background: The colour change of resazurin is a common sign of viable cells or microbes.

On to `Cc1cc2c(Nc3ccccc3)nc(Nc3ccccc3)nc2[nH]1` [Compound 22, 6-methyl-N2,N4-diphenyl-7H-pyrrolo[2,3-d]pyrimidine-2,4-diamine], for which the half-maximal inhibitory concentration (IC50) (commonly the concentration at which inhibition is half-maximal) was 1000 to 10000 nM in test [1] and more than 10000 nM in test [2].
Take `Cn1cnc2c(Nc3ccccc3)nc(-c3ccccc3)nc21` [Compound 24, 9-methyl-N,2-diphenyl-9H-purin-6-amine]: the half-inhibitory concentration (IC50) in test [1] and in test [2] was more than 10000 nM in each case.
In the case of `Cc1cc2c(NCC3CC3)nc(-c3ccccc3)nc2[nH]1` [Compound 29, N-(cyclopropylmethyl)-6-methyl-2-phenyl-7H-pyrrole[2,3-d]pyrimidin-4-amine], the IC50 in test [1] and in test [2] was 1000 to 10000 nM throughout.
Regarding `Cc1cc2c(Nc3cccc(F)c3)nc(-c3ccccc3)nc2[nH]1` [Compound 31, N-(3-fluorophenyl)-6-methyl-2-phenyl-7H-pyrrolo[2,3-d]pyrimidin-4-amine], the IC50 in test [1] and in test [2] was 1000 to 10000 nM each time.
As for `Cc1cc2c(NC3CC3)nc(-c3cccc(F)c3)nc2[nH]1` [Compound 34, N-cyclopropyl-2-(3-fluorophenyl)-6-methyl-7H-pyrrolo[2,3-d]pyrimidin-4-amine], the results for the 50% inhibitory concentration (IC50) in test [1] and in test [2] were 100 to 1000 nM and 1000 to 10000 nM, respectively.
The like results for `Cc1cc2c(NC3CCCCC3)nc(-c3ccccc3)nc2[nH]1` [Compound 37, N-cyclohexyl-6-methyl-2-phenyl-7H-pyrrolo[2,3-d]pyrimidin-4-amine] were, in that order, 1000 to 10000 nM and 1000 to 10000 nM.
The like results for `Cc1cc2c(NC3CC3)nc(-c3ccc(F)cc3)nc2[nH]1` [Compound 38, N-cyclopropyl-2-(4-fluorophenyl)-6-methyl-7H-pyrrolo[2,3-d]pyrimidin-4-amine] were, in that order, 1000 to 10000 nM and 1000 to 10000 nM.
`Cc1cc2c(NCC(C)C)nc(-c3ccccc3)nc2[nH]1` [Compound 39, N-isobutyl-6-methyl-2-phenyl-7H-pyrrolo[2,3-d]pyrimidin-4-amine]: the 50% inhibitory concentration (IC50) in test [1] and in test [2] was 100 to 1000 nM each time.
On to `Cc1cc2c(-c3ccccc3)nc(NC(C)C)nc2[nH]1` [Compound 40, N-isopropyl-6-methyl-4-phenyl-7H-pyrrolo[2,3-d]pyrimidin-2-amine], for which the IC50 in test [1] and in test [2] was more than 10000 nM throughout.
As for `Cc1cc2c(Nc3cccc(Cl)c3)nc(-c3ccccc3)nc2[nH]1` [Compound 41, N-(3-chlorophenyl)-6-methyl-2-phenyl-7H-pyrrolo[2,3-d]pyrimidin-4-amine], the half-maximal inhibitory concentration (IC50) in test [1] and in test [2] was 1000 to 10000 nM throughout.
Take `Cc1cccc(-c2nc(NC3CC3)c3cc(C)[nH]c3n2)c1` [Compound 42, N-cyclopropyl-6-methyl-2-(m-tolyl)-7H-pyrrolo[2,3-d]pyrimidin-4-amine]: the IC50 in test [1] and in test [2] was 100 to 1000 nM each time.
For `Cc1cc2c(NC3CC3)nc(-c3ccccc3C)nc2[nH]1` [Compound 43, N-cyclopropyl-6-methyl-2-(o-tolyl)-7H-pyrrolo[2,3-d]pyrimidin-4-amine], the figures for the IC50 in test [1] and in test [2] were 100 to 1000 nM and 1000 to 10000 nM, respectively.
Taken in the same sequence, the figures for `CCOC(=O)Cc1cc2c(Nc3ccccc3)nc(-c3ccccc3)nc2[nH]1` [Compound 44] were 1000 to 10000 nM and 1000 to 10000 nM.
Turning to `Cc1ccc(-c2nc(NC3CC3)c3cc(C)[nH]c3n2)cc1` [Compound 45, N-cyclopropyl-6-methyl-2-(p-tolyl)-7H-pyrrolo[2,3-d]pyrimidin-4-amine], the IC50 in test [1] and in test [2] was 1000 to 10000 nM throughout.
Take `CC(C)Nc1nc(-c2ccccc2)nc2[nH]c(-c3ccccc3)cc12` [Compound 46, N-isopropyl 2,6-diphenyl-7H-pyrrolo[2,3-d]pyrimidin-4-amine]: the 50% inhibitory concentration (IC50) in test [1] and in test [2] was more than 10000 nM each time.
As to `Cc1cc2c(NC3CC3)nc(-c3ccc(O)cc3)nc2[nH]1` [Compound 47, 4-(4-(cyclopropylamino)-6-methyl-7H-pyrrolo[2,3-d]pyrimidin-2-yl)phenol], the IC50 in test [1] and in test [2] was 100 to 1000 nM in each case.
For `Cc1cc2c(NC3CCC3)nc(-c3ccccc3F)nc2[nH]1` [Compound 48, N-cyclobutyl-2-(2-fluorophenyl)-6-methyl-7H-pyrrolo[2,3-d]pyrimidin-4-amine], the IC50 in test [1] and in test [2] was less than 100 nM in each case.
Consider `CC(C)Nc1nc(-c2ccccc2)nc2[nH]c(C(F)(F)F)cc12` [Compound 49, N-isopropyl-2-phenyl-6-(trifluoromethyl)-7H-pyrrolo[2,3-d]pyrimidin-4-amine], for which the IC50 in test [1] and in test [2] was less than 100 nM in each case.
`Cc1cc2c(Nc3ccccc3)nc(-c3ccccc3F)nc2[nH]1` [Compound 50, 2-(2-fluorophenyl)-6-methyl-N-phenyl-7H-pyrrolo[2,3-d]pyrimidin-4-amine]: the half-maximal inhibitory concentration (IC50) in test [1] and in test [2] was 100 to 1000 nM throughout.
Turning to `Cc1cc2c(NC3CCCC3)nc(-c3ccccc3F)nc2[nH]1` [Compound 51, N-cyclopentyl-2-(2-fluorophenyl)-6-methyl-7H-pyrrolo[2,3-d]pyrimidin-4-amine], the IC50 in test [1] and in test [2] was less than 100 nM each time.
